Common to all, as to type: functional
The test system of assay [1] is Ctenocephalides felis. Briefly: Parasiticidal activity against Ctenocephalides felis assessed as mortality after 24 hrs by cat flea assay. More on the design: concentration or dose not given beside the values.
Assay [2] deals with Ctenocephalides felis. Briefly: Parasiticidal activity against Ctenocephalides felis by cat flea assay.
A further assay concerns Haemonchus contortus. Briefly: Parasiticidal activity against Haemonchus contortus by larval assay.
Another assay concerns Rhipicephalus sanguineus. Briefly: Parasiticidal activity against Rhipicephalus sanguineus assessed as mortality after 24 hrs by brown dog tick assay. More on the design: concentration or dose not given beside the values.

Molecules are shown by their SMILES. A value given as a limit tells only on which side of the number the result lay.

`CC/C(=N\Oc1ccc(Cl)c(Cl)c1)c1cc(Cl)ccc1NS(=O)(=O)C(F)(F)F`: in the assay with Ctenocephalides felis [1], the Activity is listed as 99%. In the assay on Ctenocephalides felis [2], this compound had an LC50 of 6 ng/cm2. Further, in the assay on Haemonchus contortus, the LD99 came to 1.9 µM.

For the compound `C/C(=N\Oc1ccc(Br)cc1)c1cc(Cl)ccc1NS(=O)(=O)C(F)(F)F`, the Activity in the assay with Ctenocephalides felis [1] was 91%. For the same compound, in the assay with Haemonchus contortus, the LD99 was 0.87 µM.

In the case of `C/C(=N\Oc1cccc(C(F)(F)F)c1)c1cc(Cl)ccc1NS(=O)(=O)C(F)(F)F`, the Activity in the assay with Ctenocephalides felis [1] is reported as 96%. This compound also showed an LD99 in the assay on Haemonchus contortus of 0.83 µM.

In turn, `N#Cc1nn(-c2c(Cl)cc(C(F)(F)F)cc2Cl)c(N)c1[S+]([O-])C(F)(F)F` (stereo not given) [FIPRONIL] came in with an LC50 in the assay with Ctenocephalides felis [2] of 0.1 ng/cm2.

As for `CC/C(=N\OC(C)C)c1cc(Cl)ccc1NS(=O)(=O)C(F)(F)F`, the Activity with Ctenocephalides felis [1] and in the assay on Rhipicephalus sanguineus was 100% throughout.

Turning to `C/C(=N\OC(C)C)c1cc(Cl)ccc1NS(=O)(=O)C(F)(F)F`, the Activity amounted to 100% with Ctenocephalides felis [1] and 95% in the assay on Rhipicephalus sanguineus.

In the case of `C/C(=N\OCc1ccc(Cl)cc1)c1ccc(C(F)(F)F)cc1NS(=O)(=O)C(F)(F)F`, the Activity with Ctenocephalides felis [1] is 100%; in the assay on Rhipicephalus sanguineus, 27%.

For `C/C(=N\OC1CCCCC1)c1ccc(C(F)(F)F)cc1NS(=O)(=O)C(F)(F)F`, in the assay with Ctenocephalides felis [1], the Activity is reported as 4%.

With `CCO/N=C(\C)c1cc(Cl)ccc1NS(=O)(=O)C(F)(F)F`, the Activity with Ctenocephalides felis [1] was found to be 100%; in the assay on Rhipicephalus sanguineus, 85%. Further, the LD99 with Haemonchus contortus was above 15 µM.

On to `O=S(=O)(Nc1ccc(Cl)cc1/C(=N/Oc1ccc(F)cc1)c1ccccc1)C(F)(F)F`, for which, in the assay with Ctenocephalides felis [1], the Activity amounted to 21%.

`C/C(=N\OCC1CCCCC1)c1cc(Cl)ccc1NS(=O)(=O)C(F)(F)F`: the Activity worked out at 96% in the assay on Ctenocephalides felis [1] and 100% in the assay with Rhipicephalus sanguineus.

Take `CC/C(=N\OCc1ccc(Cl)cc1)c1ccc(C(F)(F)F)cc1NS(=O)(=O)C(F)(F)F`: the Activity in the assay with Ctenocephalides felis [1] amounted to 100%; in the assay on Rhipicephalus sanguineus it was 25%.

Regarding `CC/C(=N\OCC(F)(F)F)c1cc(Cl)ccc1NS(=O)(=O)C(F)(F)F`, the Activity with Ctenocephalides felis [1] turned out to be 100%; in the assay on Rhipicephalus sanguineus, 80%.

Take `C/C(=N\Oc1ccc(Cl)c(Cl)c1)c1cc(Cl)ccc1NS(=O)(=O)C(F)(F)F`: in the assay with Ctenocephalides felis [1], the Activity is given as 71%. The compound further displayed an LD99 in the assay with Haemonchus contortus of 1.6 µM.

`CO/N=C(\C)c1cc(Cl)ccc1NS(=O)(=O)C(F)(F)F`: the Activity was 100% in the assay on Ctenocephalides felis [1] and 93% in the assay with Rhipicephalus sanguineus.

In the case of `C/C(=N\OC1CCCCC1)c1cc(Cl)ccc1NS(=O)(=O)C(F)(F)F`, the Activity in the assay with Ctenocephalides felis [1] and in the assay with Rhipicephalus sanguineus was 100% in each case.

For `CCC/C(=N\OC1CCCCC1)c1cc(Cl)ccc1NS(=O)(=O)C(F)(F)F`, the Activity in the assay on Ctenocephalides felis [1] was determined as 43%.

As to `CC/C(=N\OCCOC)c1cc(Cl)ccc1NS(=O)(=O)C(F)(F)F`, the figures for the Activity in the assay on Ctenocephalides felis [1] and in the assay on Rhipicephalus sanguineus were 100% and 95%, respectively.

For the compound `CC/C(=N\OCC1CCCC1)c1cc(Cl)ccc1NS(=O)(=O)C(F)(F)F`, the values for the Activity in the assay with Ctenocephalides felis [1] and in the assay with Rhipicephalus sanguineus were 97% and 90%, respectively.

For the compound `CCC/C(=N\OCC1CCCCC1)c1cc(Cl)ccc1NS(=O)(=O)C(F)(F)F`, in the assay with Ctenocephalides felis [1], the Activity is 70%. The same compound gave an LD99 in the assay on Haemonchus contortus of 11 µM.

With `CC(C)/C(=N\Oc1ccc(F)cc1)c1cc(Cl)ccc1NS(=O)(=O)C(F)(F)F`, the Activity is 100% in the assay on Ctenocephalides felis [1] and 42% in the assay with Rhipicephalus sanguineus.

As for `O=S(=O)(Nc1ccc(Cl)cc1/C(=N/OCC1CCCCC1)c1ccccc1)C(F)(F)F`, the results for the Activity in the assay with Ctenocephalides felis [1] and in the assay with Rhipicephalus sanguineus were 8% and 52%, respectively.

As to `C=CCO/N=C(\C)c1cc(Cl)ccc1NS(=O)(=O)C(F)(F)F`, the Activity in the assay with Ctenocephalides felis [1] and in the assay with Rhipicephalus sanguineus was 100% throughout.

With `CC/C(=N\OCC1CCCCC1)c1ccc(C(F)(F)F)cc1NS(=O)(=O)C(F)(F)F`, the Activity with Ctenocephalides felis [1] came to 97%; with Rhipicephalus sanguineus, 17%.

Consider `CC/C(=N\Oc1ccc(Cl)cc1)c1ccc(C(F)(F)F)cc1NS(=O)(=O)C(F)(F)F`, for which the Activity with Ctenocephalides felis [1] worked out at 100%; in the assay on Rhipicephalus sanguineus, 17%.

For `CC/C(=N\OCc1ccc(Cl)c(Cl)c1)c1cc(Cl)ccc1NS(=O)(=O)C(F)(F)F`, the Activity in the assay on Ctenocephalides felis [1] amounted to 100%. Also, the LD99 in the assay on Haemonchus contortus is 1.3 µM.

Regarding `CCC/C(=N\OCc1ccc(Cl)cc1Cl)c1cc(Cl)ccc1NS(=O)(=O)C(F)(F)F`, in the assay with Ctenocephalides felis [1], the Activity was determined as 88%. For the same compound, in the assay on Haemonchus contortus, the LD99 amounted to 3.6 µM.

Consider `O=S(=O)(Nc1ccc(Cl)cc1/C=N/OCc1ccc(Cl)c(Cl)c1)C(F)(F)F`, for which the Activity in the assay on Ctenocephalides felis [1] came to 42%. The LD99 with Haemonchus contortus was 1.4 µM.

Regarding `C/C(=N\Oc1ccc(Cl)cc1)c1cc(Cl)ccc1NS(=O)(=O)C(F)(F)F`, the Activity in the assay with Ctenocephalides felis [1] worked out at 90%. In the assay with Haemonchus contortus, this compound came in with an LD99 of 1 µM.

On to `CC/C(=N\OCc1ccc(Br)cc1)c1cc(Cl)ccc1NS(=O)(=O)C(F)(F)F`, for which the Activity worked out at 78% in the assay on Ctenocephalides felis [1] and 58% in the assay with Rhipicephalus sanguineus. The compound further registered an LD99 in the assay on Haemonchus contortus of 1.8 µM.

Take `CC/C(=N\OCc1ccccc1C(F)(F)F)c1cc(Cl)ccc1NS(=O)(=O)C(F)(F)F`: the Activity was determined as 96% in the assay on Ctenocephalides felis [1] and 31% in the assay with Rhipicephalus sanguineus. The same compound came in with an LC50 with Ctenocephalides felis [2] of 36 ng/cm2. This compound also came in with an LD99 in the assay on Haemonchus contortus of 2.7 µM.

Take `C/C(=N\OCc1ccc(Cl)cc1)c1cc(Cl)ccc1NS(=O)(=O)C(F)(F)F`: the results for the Activity in the assay with Ctenocephalides felis [1] and in the assay on Rhipicephalus sanguineus were 100% and 72%, respectively. This compound returned an LD99 in the assay on Haemonchus contortus of 3 µM.

Regarding `CC/C(=N\Oc1cccc(C(F)(F)F)c1)c1cc(Cl)ccc1NS(=O)(=O)C(F)(F)F`, the Activity in the assay with Ctenocephalides felis [1] is on record as 71%. In addition, the LD99 in the assay with Haemonchus contortus was found to be 2 µM.

For `CCO/N=C(\C)c1ccccc1NS(=O)(=O)C(F)(F)F`, the Activity in the assay with Ctenocephalides felis [1] was determined as 92%; in the assay with Rhipicephalus sanguineus, 90%. The compound also showed an LD99 with Haemonchus contortus above 16 µM.

For `O=S(=O)(Nc1ccc(Cl)cc1/C(=N/OC1CCCCC1)c1ccccc1)C(F)(F)F`, the Activity with Ctenocephalides felis [1] worked out at 12%; in the assay with Rhipicephalus sanguineus it was 45%.

Compound `c1ccc([C@H]2CN3CCSC3=N2)cc1` [LEVAMISOLE] gave an LD99 in the assay with Haemonchus contortus of 0.71 µM.

`C/C(=N\OC1CCCC1)c1cc(Cl)ccc1NS(=O)(=O)C(F)(F)F`: the Activity in the assay on Ctenocephalides felis [1] and in the assay on Rhipicephalus sanguineus was 100% each time.

For `CC/C(=N\Oc1ccc(Cl)cc1)c1cc(Cl)ccc1NS(=O)(=O)C(F)(F)F`, the Activity in the assay on Ctenocephalides felis [1] came to 100%; in the assay on Rhipicephalus sanguineus it was 95%. The LC50 in the assay on Ctenocephalides felis [2] came out at 51 ng/cm2. Also, the LD99 in the assay with Haemonchus contortus was 1 µM.

For the compound `CCC/C(=N\Oc1ccc(F)cc1)c1cc(Cl)ccc1NS(=O)(=O)C(F)(F)F`, the Activity with Ctenocephalides felis [1] is 36%.

As to `CCO/N=C(\C)c1ccc(F)cc1NS(=O)(=O)C(F)(F)F`, the Activity with Ctenocephalides felis [1] was found to be 100%; with Rhipicephalus sanguineus it was 8%. The LD99 in the assay on Haemonchus contortus was above 15 µM.

In the case of `C/C(=N\Oc1cccc(Cl)c1)c1cc(Cl)ccc1NS(=O)(=O)C(F)(F)F`, the values for the Activity in the assay with Ctenocephalides felis [1] and with Rhipicephalus sanguineus were 100% and 47%, respectively. In addition, in the assay with Haemonchus contortus, the LD99 came out at 3.8 µM.

`CC/C(=N\OCc1cccc(Cl)c1Cl)c1cc(Cl)ccc1NS(=O)(=O)C(F)(F)F`: in the assay on Ctenocephalides felis [1], the Activity is given as 63%. The same compound came in with an LD99 in the assay on Haemonchus contortus of 0.63 µM.

In the case of `CCO/N=C(\C)c1cccc(OC)c1NS(=O)(=O)C(F)(F)F`, the Activity in the assay on Ctenocephalides felis [1] was 45%. Moreover, in the assay with Haemonchus contortus, the LD99 was above 15 µM.

As to `CC/C(=N\Oc1ccc(Br)cc1)c1cc(Cl)ccc1NS(=O)(=O)C(F)(F)F`, the Activity in the assay on Ctenocephalides felis [1] turned out to be 78%. Further, the LD99 in the assay with Haemonchus contortus worked out at 3.7 µM.

With `CC/C(=N\Oc1cccc(Cl)c1)c1cc(Cl)ccc1NS(=O)(=O)C(F)(F)F`, the Activity in the assay with Ctenocephalides felis [1] was 100%. Besides, in the assay on Haemonchus contortus, the LD99 came out at 3.6 µM.

Source of the values: ChEMBL document CHEMBL1140776, “Parasiticidal 2-alkoxy- and 2-aryloxyiminoalkyl trifluoromethanesulfonanilides” (2008).
